Results: ChEMBL document CHEMBL1914411, “Synthesis of lipophilic dimeric C-7/C-7-linked ciprofloxacin and C-6/C-6-linked levofloxacin derivatives. Versatile in vitro biological evaluations of monomeric and dimeric fluoroquinolone derivatives as potential antitumor, antibacterial or antimycobacterial agents” (Eur J Med Chem, 2011)
Converted amounts (≈) assume the structure as drawn. The source made the active and inactive calls.

What was measured:
[1] = test system: Mycobacterium tuberculosis; experiment: Antimycobacterial activity against Mycobacterium tuberculosis H37Rv after 6 days by MTT colorimetric microassay; assay type: functional, organism-based; settings: 144 h
[2] = test system: Mycobacterium tuberculosis; experiment: Antimycobacterial activity against Mycobacterium tuberculosis H37Rv assessed as growth inhibition at 10 uM after 6 days by MTT colorimetric microassay; assay type: functional; settings: 144 h, read-out: GI
[3] = test system: Mycobacterium tuberculosis; experiment: Antimycobacterial activity against Mycobacterium tuberculosis H37Rv assessed as growth inhibition at 0.1 uM after 6 days by MTT colorimetric microassay; assay type: functional, organism-based
[4] = test system: Mycobacterium tuberculosis; experiment: Antimycobacterial activity against Mycobacterium tuberculosis H37Rv assessed as growth inhibition at 1 uM after 6 days by MTT colorimetric microassay; assay type: functional; settings: for inhibition of growth at 1 µM: 144 h, read-out: GI
[5] = test system: Escherichia coli; experiment: Antimicrobial activity against Escherichia coli CIP 53126 after 18 to 24 hrs by broth microdilution method; assay type: functional
[6] = test system: Enterococcus hirae; experiment: Antimicrobial activity against Enterococcus hirae CIP 5855 after 18 to 24 hrs by broth microdilution method; assay type: functional
[7] = test system: Staphylococcus aureus; experiment: Antimicrobial activity against Staphylococcus aureus CIP 4.83 after 18 to 24 hrs by broth microdilution method; assay type: functional
[8] = test system: Pseudomonas aeruginosa; experiment: Antimicrobial activity against Pseudomonas aeruginosa CIP 82.118 after 18 to 24 hrs by broth microdilution method; assay type: functional
[9] = test system: Staphylococcus aureus; experiment: Antimicrobial activity against multidrug-resistant Staphylococcus aureus isolate 1 after 18 to 24 hrs by broth microdilution method; assay type: functional
[10] = test system: Staphylococcus aureus; experiment: Antimicrobial activity against methicillin-resistant Staphylococcus aureus ATCC 33591 after 18 to 24 hrs by broth microdilution method; assay type: functional
[11] = test system: Staphylococcus aureus; experiment: Antimicrobial activity against multidrug-resistant Staphylococcus aureus isolate 2 after 18 to 24 hrs by broth microdilution method; assay type: functional
[12] = test system: Staphylococcus aureus; experiment: Antimicrobial activity against methicillin-resistant Staphylococcus aureus ATCC 33592 after 18 to 24 hrs by broth microdilution method; assay type: functional
[13] = Antiproliferative activity against human U373MG cells after 120 hrs by MTT asasy; assay type: functional, cell-based, U-373MG ATCC; settings: U373 MG
[14] = test system: MCF7; experiment: Antiproliferative activity against human MCF7 cells after 120 hrs by MTT asasy; assay type: functional, cell-based; settings: MCF7, 120 h

| Structure (SMILES) | MIC [1] [µM] | inhibition of growth at 10 µM [2] [%] | growth inhibition (GI) [3] | inhibition of growth at 1 µM [4] [%] | MBC [5] [µM] | MIC [5] [µM] | MBC [6] [µM] | MIC [6] [µM] | IC50 [1] [nM] | MBC [7] [µM] | MIC [7] [µM] | MBC [8] [µM] | MIC [8] [µM] | IC50 [13] [nM] | further results |
| --- | --- | --- | --- | --- | --- | --- | --- | --- | --- | --- | --- | --- | --- | --- | --- |
| CCCCCCCCCCCCCNC(=O)c1cn2c3c(c(N4CCN(C)CC4)c(F)cc3c1=O)OC[C@@H]2C | > 10 | > 95 | inactive | 5 | – | – | – | – | – | – | – | – | – | – | – |
| CCCCCCCCCCNC(=O)c1cn2c3c(c(N4CCN(C)CC4)c(F)cc3c1=O)OC[C@@H]2C | 10 (≈ 5.01 µg/mL) | > 95 | inactive | 5 | 500 (≈ 250 µg/mL) | 125 (≈ 62.6 µg/mL) | 15.6 (≈ 7.81 µg/mL) | 7.8 (≈ 3.91 µg/mL) | 5800 | 7.8 (≈ 3.91 µg/mL) | 7.8 (≈ 3.91 µg/mL) | 250 (≈ 125 µg/mL) | 62.5 (≈ 31.3 µg/mL) | – | – |
| CCCCCCCCCCCC(=O)N1CCN(c2cc3c(cc2F)c(=O)c(C(=O)O)cn3C2CC2)CC1 | – | > 95 | inactive | 20 | 7.8 (≈ 4.01 µg/mL) | 7.8 (≈ 4.01 µg/mL) | 7.8 (≈ 4.01 µg/mL) | 7.8 (≈ 4.01 µg/mL) | – | 7.8 (≈ 4.01 µg/mL) | 3.9 (≈ 2 µg/mL) | 250 (≈ 128 µg/mL) | 62.5 (≈ 32.1 µg/mL) | – | – |
| CCCCCCCCCCCCCC(=O)OCOC(=O)c1cn2c3c(c(N4CCN(C)CC4)c(F)cc3c1=O)OC[C@@H]2C | 2.5 (≈ 1.5 µg/mL) | > 95 | inactive | – | 15.6 (≈ 9.39 µg/mL) | 15.6 (≈ 9.39 µg/mL) | 15.6 (≈ 9.39 µg/mL) | 15.6 (≈ 9.39 µg/mL) | 1300 | 3.9 (≈ 2.35 µg/mL) | 7.8 (≈ 4.69 µg/mL) | 250 (≈ 150 µg/mL) | 62.5 (≈ 37.6 µg/mL) | – | – |
| O=C(O)c1cn(C2CC2)c2cc(N3CCNCC3)c(F)cc2c1=O [CIPROFLOXACIN] | 2.5 (≈ 0.828 µg/mL) | – | inactive | – | ≤ 0.97 | ≤ 0.97 | 1.9 (≈ 0.63 µg/mL) | ≤ 0.97 | 1600 | ≤ 0.97 | ≤ 0.97 | ≤ 0.97 | ≤ 0.97 | – | MBC [9]: 62.5 µM (≈ 20.7 µg/mL); MIC [9]: 31.2 µM (≈ 10.3 µg/mL); MBC [10]: 1.9 µM (≈ 0.63 µg/mL); MIC [10]: 0.97 µM (≈ 0.321 µg/mL); MBC [11]: 31.2 µM (≈ 10.3 µg/mL); MIC [11]: 31.2 µM (≈ 10.3 µg/mL); MBC [12]: 0.97 µM (≈ 0.321 µg/mL); MIC [12]: 0.48 µM (≈ 0.159 µg/mL) |
| CCCCCCCC(=O)OCOC(=O)c1cn2c3c(c(N4CCN(C)CC4)c(F)cc3c1=O)OC[C@@H]2C | 2.5 (≈ 1.29 µg/mL) | > 95 | inactive | 74 | – | – | – | – | 1300 | – | – | – | – | – | – |
| C[C@H]1COc2c(N3CCN(C)CC3)c(F)cc3c(=O)c(C(=O)NCCCCCCNC(=O)c4cn5c6c(c(N7CCN(C)CC7)c(F)cc6c4=O)OC[C@@H]5C)cn1c23 | > 10 | 60 | inactive | – | 62.5 (≈ 50.2 µg/mL) | 62.5 (≈ 50.2 µg/mL) | 125 (≈ 100 µg/mL) | 125 (≈ 100 µg/mL) | – | 500 (≈ 401 µg/mL) | 125 (≈ 100 µg/mL) | 250 (≈ 201 µg/mL) | 62.5 (≈ 50.2 µg/mL) | – | – |
| CCCCCCCCNC(=O)c1cn2c3c(c(N4CCN(C)CC4)c(F)cc3c1=O)OC[C@@H]2C | – | > 95 | inactive | – | 500 (≈ 236 µg/mL) | 125 (≈ 59.1 µg/mL) | 31.2 (≈ 14.7 µg/mL) | 31.2 (≈ 14.7 µg/mL) | – | 31.2 (≈ 14.7 µg/mL) | 31.2 (≈ 14.7 µg/mL) | 250 (≈ 118 µg/mL) | 31.2 (≈ 14.7 µg/mL) | 2300 | – |
| CCCCCCCCCCCCCCCCCCCC(=O)OCOC(=O)c1cn2c3c(c(N4CCN(C)CC4)c(F)cc3c1=O)OC[C@@H]2C | – | – | inactive | – | – | – | – | – | – | – | – | – | – | – | growth inhibition (GI) [4]: inactive |
| CCCCCCCCCC(=O)N1CCN(c2cc3c(cc2F)c(=O)c(C(=O)O)cn3C2CC2)CC1 | – | > 95 | inactive | 20 | 500 (≈ 243 µg/mL) | 125 (≈ 60.7 µg/mL) | 15.6 (≈ 7.58 µg/mL) | 15.6 (≈ 7.58 µg/mL) | – | 62.5 (≈ 30.4 µg/mL) | 7.8 (≈ 3.79 µg/mL) | 250 (≈ 121 µg/mL) | 125 (≈ 60.7 µg/mL) | 5000 | – |
| CCCCCCCCCCCC(=O)OCOC(=O)c1cn2c3c(c(N4CCN(C)CC4)c(F)cc3c1=O)OC[C@@H]2C | 2.5 (≈ 1.43 µg/mL) | > 95 | inactive | 74 | 3.9 (≈ 2.24 µg/mL) | 3.9 (≈ 2.24 µg/mL) | 1.9 (≈ 1.09 µg/mL) | 1.9 (≈ 1.09 µg/mL) | 1300 | ≤ 0.97 | ≤ 0.97 | 3.9 (≈ 2.24 µg/mL) | ≤ 0.97 | 200 | – |
| O=C(O)c1cn(C2CC2)c2cc(N3CCN(C(=O)CCCCCCCCCCCCC(=O)N4CCN(c5cc6c(cc5F)c(=O)c(C(=O)O)cn6C5CC5)CC4)CC3)c(F)cc2c1=O | – | – | inactive | – | 500 (≈ 443 µg/mL) | 62.5 (≈ 55.3 µg/mL) | 500 (≈ 443 µg/mL) | 125 (≈ 111 µg/mL) | – | 1.9 (≈ 1.68 µg/mL) | ≤ 0.12 | 250 (≈ 221 µg/mL) | 62.5 (≈ 55.3 µg/mL) | 5000 | IC50 [14]: 5000 nM; MBC [9]: 500 µM (≈ 443 µg/mL); MIC [9]: 7.8 µM (≈ 6.9 µg/mL); MBC [10]: 3.9 µM (≈ 3.45 µg/mL); MIC [10]: 0.06 µM (≈ 0.0531 µg/mL); MBC [11]: 15.6 µM (≈ 13.8 µg/mL); MIC [11]: 7.8 µM (≈ 6.9 µg/mL); MBC [12]: 0.97 µM (≈ 0.858 µg/mL); MIC [12]: 0.12 µM (≈ 0.106 µg/mL) |
| CCCCCCCCCCCCCCCC(=O)OCOC(=O)c1cn2c3c(c(N4CCN(C)CC4)c(F)cc3c1=O)OC[C@@H]2C | – | – | inactive | – | – | – | – | – | – | – | – | – | – | – | growth inhibition (GI) [4]: inactive |
| CCCCCCCCCCCCCCCNC(=O)c1cn2c3c(c(N4CCN(C)CC4)c(F)cc3c1=O)OC[C@@H]2C | 10 (≈ 5.71 µg/mL) | > 95 | inactive | 5 | 500 (≈ 285 µg/mL) | 125 (≈ 71.3 µg/mL) | 7.8 (≈ 4.45 µg/mL) | 7.8 (≈ 4.45 µg/mL) | 6500 | 15.6 (≈ 8.9 µg/mL) | 15.6 (≈ 8.9 µg/mL) | 250 (≈ 143 µg/mL) | 62.5 (≈ 35.7 µg/mL) | – | – |
| CCCCCCCCCCCC(=O)OCC(=O)N1CCN(c2cc3c(cc2F)c(=O)c(C(=O)O)cn3C2CC2)CC1 | – | > 95 | inactive | – | 250 (≈ 143 µg/mL) | 125 (≈ 71.5 µg/mL) | 7.8 (≈ 4.46 µg/mL) | 7.8 (≈ 4.46 µg/mL) | – | ≤ 0.97 | ≤ 0.97 | 250 (≈ 143 µg/mL) | 62.5 (≈ 35.7 µg/mL) | 49000 | MBC [9]: 500 µM (≈ 286 µg/mL); MIC [9]: 125 µM (≈ 71.5 µg/mL); MBC [10]: 3.9 µM (≈ 2.23 µg/mL); MIC [10]: 1.9 µM (≈ 1.09 µg/mL); MBC [11]: 250 µM (≈ 143 µg/mL); MIC [11]: 62.5 µM (≈ 35.7 µg/mL); MBC [12]: 0.97 µM (≈ 0.555 µg/mL); MIC [12]: 0.06 µM (≈ 0.0343 µg/mL) |
| CCCC(=O)OCOC(=O)c1cn2c3c(c(N4CCN(C)CC4)c(F)cc3c1=O)OC[C@@H]2C | 2.5 (≈ 1.15 µg/mL) | > 95 | inactive | 74 | – | – | – | – | 1300 | – | – | – | – | – | – |
